The source of these data is the supplement of paper PMC12137928.

This test concerns HCT116. To be noted: 72 h. The procedure, abridged:
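After seeding at 250 cells per well in 1536-well plates, HCT116 cells were given 5 h to attach. CellTiter-Glo luminescence, scaled to 0% for vehicle and -100% for positive control, was pattern-corrected. Fitting with a four-parameter Hill model produced IC50 and maximal efficacy.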

Counter-ions that a name gives are not always drawn.

For `CCN(CC)C(=O)N[C@H]1C[C@@H]2c3cccc4[nH]cc(c34)C[C@H]2N(C)C1` [Terguride], the IC50 cell viability was > 45.8 µM (ICRF193 0 nM) and > 45.8 µM (ICRF193 200 nM).
As to `NCCCC[C@H](NC(=O)[C@@H]1CCCN1C(=O)[C@@H]1CSSC[C@H](NC(=O)CNC(=O)CNC(=O)CN)C(=O)N[C@@H](Cc2ccc(O)cc2)C(=O)N[C@@H](Cc2ccccc2)C(=O)N[C@@H](CCC(N)=O)C(=O)N[C@@H](CC(N)=O)C(=O)N1)C(=O)NCC(N)=O` [Terlipressin], the IC50 cell viability (ICRF193 0 nM) was > 45.8 µM and the IC50 cell viability (ICRF193 200 nM) is > 45.8 µM.
Take `CC(CC(c1ccccc1)c1ccccc1)NC(C)(C)C` (centres undefined) [Terodiline hydrochloride]: the IC50 cell viability was > 45.8 µM (ICRF193 0 nM) and > 45.8 µM (ICRF193 200 nM).
For `CC1=CCC(O)(C(C)C)CC1` (centres undefined) [Terpineol], the IC50 cell viability is, setting by setting: (ICRF193 0 nM) > 45.8 µM; (ICRF193 200 nM) > 45.8 µM.
For the compound `CCO[C@@H](Cc1ccc(OCCc2ccc(OS(C)(=O)=O)cc2)cc1)C(=O)O` [Tesaglitazar], the IC50 cell viability is > 45.8 µM (ICRF193 0 nM) and > 45.8 µM (ICRF193 200 nM).
In the case of `C[C@]12CC[C@H]3[C@@H](CCC4=CC(=O)CC[C@@]43C)[C@@H]1CC[C@@H]2OC(=O)CCc1ccccc1` [Testosterone 17-phenylpropionate], the IC50 cell viability runs as follows: (ICRF193 0 nM) > 45.8 µM; (ICRF193 200 nM) > 45.8 µM.
Consider `CCCCCCCCCCC(=O)O[C@H]1CC[C@H]2[C@@H]3CCC4=CC(=O)CC[C@]4(C)[C@H]3CC[C@]12C` [Testosterone (undecanoate)], for which the IC50 cell viability by setting is: (ICRF193 0 nM) > 45.8 µM; (ICRF193 200 nM) > 45.8 µM.
Regarding `CCCCCCCCCC(=O)O[C@H]1CC[C@H]2[C@@H]3CCC4=CC(=O)CC[C@]4(C)[C@H]3CC[C@]12C` [Testosterone decanoate], the IC50 cell viability was > 45.8 µM (ICRF193 0 nM) and > 45.8 µM (ICRF193 200 nM).
On to `CC(C)CCC(=O)O[C@H]1CC[C@H]2[C@@H]3CCC4=CC(=O)CC[C@]4(C)[C@H]3CC[C@]12C` [Testosterone isocaproate], for which the IC50 cell viability is > 45.8 µM (ICRF193 0 nM) and > 45.8 µM (ICRF193 200 nM).
With `CCC(=O)O[C@H]1CC[C@H]2[C@@H]3CCC4=CC(=O)CC[C@]4(C)[C@H]3CC[C@]12C` [Testosterone propionate], the IC50 cell viability was > 45.8 µM (ICRF193 0 nM) and > 45.8 µM (ICRF193 200 nM).
As to `COc1cc2c(cc1OC)C1CC(=O)C(CC(C)C)CN1CC2` (centres undefined) [Tetrabenazine Mesylate], the IC50 cell viability (ICRF193 0 nM) was > 45.8 µM and the IC50 cell viability (ICRF193 200 nM) is > 45.8 µM.
`COc1cc2c(cc1OC)C1CC(=O)C(CC(C)C)CN1CC2` (centres undefined) [Tetrabenazine]: the IC50 cell viability was > 45.8 µM (ICRF193 0 nM) and > 45.8 µM (ICRF193 200 nM).
Consider `CCCCNc1ccc(C(=O)OCCN(C)C)cc1` [Tetracaine hydrochloride], for which the IC50 cell viability is, setting by setting: (ICRF193 0 nM) > 45.8 µM; (ICRF193 200 nM) > 45.8 µM.
Turning to `CN(C)[C@@H]1C(O)=C(C(N)=O)C(=O)[C@@]2(O)C(O)=C3C(=O)c4c(O)cccc4[C@@](C)(O)[C@H]3C[C@@H]12` [Tetracycline hydrochloride], the IC50 cell viability is, setting by setting: (ICRF193 0 nM) > 45.8 µM; (ICRF193 200 nM) > 45.8 µM.
Consider `NCCNCCNCCNCCN` [Tetraethylenepentamine], for which the IC50 cell viability reads like this: (ICRF193 0 nM) > 45.8 µM; (ICRF193 200 nM) > 45.8 µM.
On to `c1ccc2c(c1)CCCC2C1=NCCN1` (centres undefined) [Tetrahydrozoline HCl], for which the IC50 cell viability runs as follows: (ICRF193 0 nM) > 45.8 µM; (ICRF193 200 nM) > 45.8 µM.
Consider `O=C1CCC(N2C(=O)c3ccccc3C2=O)C(=O)N1` (centres undefined) [Thalidomide], for which the IC50 cell viability (ICRF193 0 nM) was > 45.8 µM and the IC50 cell viability (ICRF193 200 nM) was > 45.8 µM.
Regarding `CC1(C)[C@@H]2CC[C@@]1(C)[C@H](OC(=O)CSC#N)C2` [Thanite], the IC50 cell viability reads like this: (ICRF193 0 nM) > 45.8 µM; (ICRF193 200 nM) > 45.8 µM.
Regarding `CN(C)CCN(Cc1ccsc1)c1ccccn1` [Thenyldiamine], the IC50 cell viability (ICRF193 0 nM) is > 45.8 µM and the IC50 cell viability (ICRF193 200 nM) is > 45.8 µM.
With `Cn1cnc2c1c(=O)[nH]c(=O)n2C` [Theobromine], the IC50 cell viability was > 45.8 µM (ICRF193 0 nM) and > 45.8 µM (ICRF193 200 nM).
As to `Cn1c(=O)c2[nH]cnc2n(C)c1=O` [Theophyllamine], the IC50 cell viability runs as follows: (ICRF193 0 nM) > 45.8 µM; (ICRF193 200 nM) > 45.8 µM.
In the case of `c1ccc2[nH]c(-c3cscn3)nc2c1` [Thiabendazole], the IC50 cell viability was > 45.8 µM (ICRF193 0 nM) and > 45.8 µM (ICRF193 200 nM).
In the case of `C/C(=C(\CCO)SS/C(CCO)=C(/C)N(C=O)Cc1cnc(C)nc1N)N(C=O)Cc1cnc(C)nc1N` [Thiamine disulfide], the IC50 cell viability was > 45.8 µM (ICRF193 0 nM) and > 45.8 µM (ICRF193 200 nM).
Regarding `Cc1ncc(C[n+]2csc(CCO)c2C)c(N)n1` [Thiamine hydrochloride], the IC50 cell viability was > 45.8 µM (ICRF193 0 nM) and > 45.8 µM (ICRF193 200 nM).
As to `Cc1ncc(C[n+]2csc(CCOP(=O)(O)OP(=O)(O)O)c2C)c(N)n1` [Thiamine pyrophosphate], the IC50 cell viability reads like this: (ICRF193 0 nM) > 45.8 µM; (ICRF193 200 nM) > 45.8 µM.
On to `CS(=O)(=O)c1ccc([C@H](O)[C@@H](COC(=O)CN)NC(=O)C(Cl)Cl)cc1` [Thiamphenicol glycinate], for which the IC50 cell viability is > 45.8 µM (ICRF193 0 nM) and > 45.8 µM (ICRF193 200 nM).
Turning to `CS(=O)(=O)c1ccc([C@@H](O)[C@@H](CO)NC(=O)C(Cl)Cl)cc1` [Thiamphenicol], the IC50 cell viability is > 45.8 µM (ICRF193 0 nM) and > 45.8 µM (ICRF193 200 nM).
`S=P(N1CC1)(N1CC1)N1CC1` [ThioTEPA]: the IC50 cell viability is, setting by setting: (ICRF193 0 nM) > 45.8 µM; (ICRF193 200 nM) > 45.8 µM.
For `N#CSCC(=O)O` [Thiocyanoacetic acid sodium salt], the IC50 cell viability is, setting by setting: (ICRF193 0 nM) > 45.8 µM; (ICRF193 200 nM) > 45.8 µM.
With `COc1ccc(CN(CCN(C)C)c2ncccn2)cc1` [Thonzylamine hydrochloride], the IC50 cell viability by setting is: (ICRF193 0 nM) > 45.8 µM; (ICRF193 200 nM) > 45.8 µM.
Consider `Cc1cc(OI)c(C(C)C)cc1-c1cc(C(C)C)c(OI)cc1C` [Thymol iodide], for which the IC50 cell viability by setting is: (ICRF193 0 nM) > 45.8 µM; (ICRF193 200 nM) > 45.8 µM.
With `Cc1ccc(C(C)C)c(O)c1` [Thymol], the IC50 cell viability is > 45.8 µM (ICRF193 0 nM) and > 45.8 µM (ICRF193 200 nM).
Consider `Cc1ccsc1C(=CCCN1CCC[C@@H](C(=O)O)C1)c1sccc1C` [Tiagabine hydrochloride], for which the IC50 cell viability runs as follows: (ICRF193 0 nM) > 45.8 µM; (ICRF193 200 nM) > 45.8 µM.
With `C=C[C@]1(C)C[C@@H](OC(=O)CSCCN(CC)CC)[C@]2(C)[C@H](C)CC[C@]3(CCC(=O)[C@H]32)[C@@H](C)[C@@H]1O` [Tiamulin], the IC50 cell viability reads like this: (ICRF193 0 nM) > 45.8 µM; (ICRF193 200 nM) > 45.8 µM.
`CCN(CC)CCNC(=O)c1cc(S(C)(=O)=O)ccc1OC` [Tiapride hydrochloride]: the IC50 cell viability by setting is: (ICRF193 0 nM) > 45.8 µM; (ICRF193 200 nM) > 45.8 µM.
Consider `CC(C(=O)O)c1ccc(C(=O)c2ccccc2)s1` (centres undefined) [Tiaprofenic acid], for which the IC50 cell viability runs as follows: (ICRF193 0 nM) > 45.8 µM; (ICRF193 200 nM) > 45.8 µM.
On to `O=C(Cn1c(=O)sc2ccc(Cl)cc21)N1CCN(CCO)CC1` [Tiaramide hydrochloride], for which the IC50 cell viability reads like this: (ICRF193 0 nM) > 45.8 µM; (ICRF193 200 nM) > 45.8 µM.
Take `C#C[C@]1(O)CC[C@H]2[C@@H]3[C@H](C)CC4=C(CCC(=O)C4)[C@H]3CC[C@@]21C` [Tibolone]: the IC50 cell viability (ICRF193 0 nM) was > 45.8 µM and the IC50 cell viability (ICRF193 200 nM) was > 45.8 µM.
On to `CC1(C)S[C@@H]2[C@H](NC(=O)[C@H](C(=O)O)c3ccsc3)C(=O)N2[C@H]1C(=O)O` [Ticarcillin sodium], for which the IC50 cell viability is > 45.8 µM (ICRF193 0 nM) and > 45.8 µM (ICRF193 200 nM).
Take `Clc1ccccc1CN1CCc2sccc2C1` [Ticlopidine hydrochloride]: the IC50 cell viability is > 45.8 µM (ICRF193 0 nM) and > 45.8 µM (ICRF193 200 nM).
Take `CN(C)c1cc(NC(=O)CNC(C)(C)C)c(O)c2c1C[C@H]1C[C@H]3[C@H](N(C)C)C(O)=C(C(N)=O)C(=O)[C@@]3(O)C(O)=C1C2=O` [Tigecycline]: the IC50 cell viability was > 45.8 µM (ICRF193 0 nM) and > 45.8 µM (ICRF193 200 nM).
In the case of `CC[C@H]1OC(=O)C[C@@H](O)[C@H](C)[C@@H](O[C@@H]2O[C@H](C)[C@@H](O)[C@H](N(C)C)[C@H]2O)[C@@H](CCN2CCCCC2)C[C@@H](C)C(=O)/C=C/C(C)=C/[C@@H]1CN1CCCCC1` [Tildipirosin], the IC50 cell viability was > 45.8 µM (ICRF193 0 nM) and > 45.8 µM (ICRF193 200 nM).
In the case of `CCNC1(c2cccs2)CCCCC1=O` (centres undefined) [Tiletamine Hydrochloride], the IC50 cell viability is > 45.8 µM (ICRF193 0 nM) and > 45.8 µM (ICRF193 200 nM).
On to `Cc1nc(C2CCCCC2)c(-c2ccc(S(N)(=O)=O)c(F)c2)o1` [Tilmacoxib], for which the IC50 cell viability is > 45.8 µM (ICRF193 0 nM) and > 45.8 µM (ICRF193 200 nM).
With `O=P(O)(O)C(Sc1ccc(Cl)cc1)P(=O)(O)O` [Tiludronate disodium salt hydrate], the IC50 cell viability runs as follows: (ICRF193 0 nM) > 45.8 µM; (ICRF193 200 nM) > 45.8 µM.
Take `COC1CC(=C(c2cccs2)c2cccs2)C[N+](C)(C)C1` (centres undefined) [Timepidium bromide]: the IC50 cell viability is, setting by setting: (ICRF193 0 nM) > 45.8 µM; (ICRF193 200 nM) > 45.8 µM.
As to `CCS(=O)(=O)CCn1c([N+](=O)[O-])cnc1C` [Tinidazole], the IC50 cell viability by setting is: (ICRF193 0 nM) > 45.8 µM; (ICRF193 200 nM) > 45.8 µM.
`CCOC(=O)c1c(N)sc2c1CCN(Cc1ccccc1)C2` [Tinoridine]: the IC50 cell viability is > 45.8 µM (ICRF193 0 nM) and > 45.8 µM (ICRF193 200 nM).
For `CC(S)C(=O)NCC(=O)O` (centres undefined) [Tiopronin], the IC50 cell viability is, setting by setting: (ICRF193 0 nM) > 45.8 µM; (ICRF193 200 nM) > 45.8 µM.
With `C[N+]1(C)[C@@H]2C[C@@H](OC(=O)C(O)(c3cccs3)c3cccs3)C[C@H]1[C@@H]1O[C@@H]12` [Tiotropium (Bromide)], the IC50 cell viability is > 45.8 µM (ICRF193 0 nM) and > 45.8 µM (ICRF193 200 nM).
For the compound `CCCOc1ccc2nc(NC(=O)OC)sc2c1` [Tioxidazole], the IC50 cell viability is > 45.8 µM (ICRF193 0 nM) and > 45.8 µM (ICRF193 200 nM).
On to `N=C1CCCN1Cc1[nH]c(=O)[nH]c(=O)c1Cl` [Tipiracil], for which the IC50 cell viability (ICRF193 0 nM) is > 45.8 µM and the IC50 cell viability (ICRF193 200 nM) was > 45.8 µM.
